Legend:
Format in all cases: cell-based
[1] = test system: Pseudomonas aeruginosa, Enterobacter gergoviae, Pseudomonas putida, Salmonella choleraesuis, Escherichia coli, Staphylococcus aureus (mixed inoculum); experiment: Preservative efficacy of dimethoxane/BNPD in laundry detergent, repeated bacterial challenge; set-up: key to viable microorganism score (0-8 scale): 0-8 score = number of 1:10 dilutions to reach growth endpoint; settings: day 20
Procedure: (§1) Synergy Calculations. The reported synergy indexes are measured and calculated using the formula described below. In this approach, a synergy index of 1 indicates additivity. If the index is less than 1, synergy has occurred, while a synergy index greater than 1 indicates antagonism. Synergy index=CA/Ca+CB/Cb • Ca=minimal concentration of antimicrobial A, alone, producing a 4 log10 microbial kill • Cb=minimal concentration of antimicrobial B, alone, producing a 4 log10 microbial kill
(§2) CA and CB=the concentrations of antimicrobials A and B, in combination, producing the required microbial kill (a 4 log10 microbial kill unless indicated otherwise in a particular Example).
A sample of laundry detergent is treated with dimethoxane, BNPD, and combinations thereof. The samples are inoculated with four times over a four-week period with a 5×10^6 colony forming units per milliliter (CFU/mL) inoculum that includes Pseudomonas aeruginosa ATCC#9027, Enterobacter gergoviae ATCC#33028 Pseudomonas putida ATCC#49128, Salmonella choleraesuis ATCC#10708, Pseudomonas aeruginosa ATCC#10145, Pseudomonas aeruginosa ATCC#15442, Escherichia coli ATCC#11229, and Staphylococcus aureus ATCC#6538. The samples are inoculated on days 0, 2, 7, and 14 and analyzed for bacteria content on days 0, 1, 2, 3, 6, 8, 13, 15, 20, and 27. The bacteria concentrations are determined by serial dilution (1:10) until a growth endpoint is reached. The sample is scored on a 0-8 scale, based upon the number of serial dilutions required to reach the growth endpoint. For example, if a sample requires four 1:10 dilutions before bacterial growth is lost, then the sample receives a score of 4 which represents between 5×10^4 and 5×10^5 viable organisms.

[2] = test system: Pseudomonas aeruginosa, Enterobacter aerogenes, Escherichia coli, Klebsiella pneumoniae, Staphylococcus aureus, Salmonella choleraesuis (combined cultures); experiment: Preservative efficacy of DMX/BNPD in water-based latex paint, repeated bacterial challenge; settings: for log10 viable microorganisms recovered: day 20
Procedure: as §1, §2
In this Example, the antimicrobial profiles of dimethoxane (DMX), 2-bromo-2-nitropropane-1,3-diol (BNPD) and combinations of DMX and BNPD are evaluated in a commercial (interior eggshell) water-based latex paint formulation (pH 7.4). The paint formulation is determined to be free of microbial contamination prior to initiation of preservative efficacy evaluations.
Experimental Setup. Tests are conducted in a 96-deep well block format using a total sample volume of 600 μl for all evaluations. In these samples, no more than 10% of the total volume consists of the biocide and organism solution and all non-matrix additions are normalized for all samples. Each experimental 96-well block contains biocide-treated samples and control samples which lack biocide.
Microorganisms. Twenty-four hour tryptic soy broth cultures are combined in equal parts for formulation inoculation at a final concentration of 5×10^6 CFU/ml. Organisms are added to each sample of the 96-well block and mixed until homogenous. Additionally, bacterial challenges of the paint samples occur on days 0, 2, 7, and 14 of the 28-day test period. Organisms utilized: Pseudomonas aeruginosa (ATCC#15442), Pseudomonas aeruginosa (ATCC#10145), Enterobacter aerogenes (ATCC#13048), Escherichia coli (ATCC#11229), Klebsiella pneumoniae (ATCC#8308), Staphylococcus aureus (ATCC#6538), Salmonella choleraesuis (ATCC#10708).
Enumeration of Viable Organisms. Sample aliquots are removed, at predetermined time points, for the enumeration of surviving microorganisms. Numerical values in the data tables listed below represent the log10 viable microorganisms recovered from individual samples at specific time points and biocide concentrations post microorganism addition. Biocide concentrations resulting in a ≧4 log10 kill of microorganisms, as compared to the preservative-free control, are deemed a significant reduction of viable organisms and are subsequently used for calculating synergy index values.

[3] = test system: Pseudomonas aeruginosa, Enterobacter aerogenes, Escherichia coli, Klebsiella pneumoniae, Staphylococcus aureus, Salmonella choleraesuis (combined cultures); experiment: Preservative efficacy of DMX/BNPD in spinning finish emulsion, repeated bacterial challenge; settings: ≧6 log10 microbial kill, day 27, post 4th microbial challenge
Procedure: as §1, §2
In this Example, the antimicrobial profiles of dimethoxane (DMX), 2-bromo-2-nitropropane-1,3-diol (BNPD) and combinations of DMX and BNPD are evaluated in a spinning finish emulsion. The spinning finish emulsion is determined to be free of microbial contamination prior to initiation of preservative efficacy evaluations. The spinning finish emulsion is prepared by adding 1 part spinning finish oil to 9 parts distilled water followed by 30 minutes of mixing.
Experimental Setup. Tests are conducted in a 96-deep well block format using a total sample volume of 300 to 600 μl for all evaluations. […]

[4] = test system: Pseudomonas aeruginosa, Enterobacter gergoviae, Pseudomonas putida, Salmonella choleraesuis, Escherichia coli, Staphylococcus aureus (mixed inoculum); experiment: Preservative efficacy of dimethoxane/2-phenoxyethanol in laundry detergent, repeated bacterial challenge; settings: day 27
[5] = test system: Pseudomonas aeruginosa, Enterobacter gergoviae, Pseudomonas putida, Salmonella choleraesuis, Escherichia coli, Staphylococcus aureus (mixed inoculum); experiment: Preservative efficacy of dimethoxane/dibromoglutaronitrile in laundry detergent, repeated bacterial challenge; settings: day 20
[6] = ≧4 log10 microbial kill, day 20, after four bacterial challenges, ppm active
[7] = minimal concentration alone giving passing score (2 or less)

SMILES: O=[N+]([O-])C(Br)(CO)CO [BNPD, 2-Bromo-2-nitropropane-1,3-diol]
- BNPD alone (ppm) ([1]; 4 log10 kill of bacteria): 99 ppm
- viable microorganism score (0-8 scale) ([1]; BNPD 44 ppm alone): 4.0
- viable microorganism score (0-8 scale) ([1]; BNPD 66 ppm alone): 2.0
- viable microorganism score (0-8 scale) ([1]; BNPD 99 ppm alone): 0.0
- viable microorganism score (0-8 scale) ([1]; BNPD 148 ppm alone): 0.0
- viable microorganism score (0-8 scale) ([1]; BNPD 222 ppm alone): 0.0
- viable microorganism score (0-8 scale) ([1]; BNPD 333 ppm alone): 0.0
- viable microorganism score (0-8 scale) ([1]; BNPD 500 ppm alone): 0.0
- viable microorganism score (0-8 scale) ([1]; BNPD 750 ppm alone): 0.0
- log10 viable microorganisms recovered ([2]; BNPD 26 ppm alone): 8
- log10 viable microorganisms recovered ([2]; BNPD 40 ppm alone): 8
- log10 viable microorganisms recovered ([2]; BNPD 59 ppm alone): 8
- log10 viable microorganisms recovered ([2]; BNPD 89 ppm alone): 8
- log10 viable microorganisms recovered ([2]; BNPD 133 ppm alone): 8
- log10 viable microorganisms recovered ([2]; BNPD 200 ppm alone): 8
- log10 viable microorganisms recovered ([2]; BNPD 300 ppm alone): 0
- log10 viable microorganisms recovered ([2]; BNPD 450 ppm alone): 0
- BNPD alone (ppm) [2, 6]: 300 ppm
- BNPD alone (ppm), active concentration necessary for microbial kill [3]: 137 ppm

SMILES: OCCOc1ccccc1 [Combination 2-PE, 2-Phenoxyethanol]
- viable microorganism score (0-8 scale) ([4]; 2-PE 585 ppm alone): 7
- viable microorganism score (0-8 scale) ([4]; 2-PE 878 ppm alone): 7
- viable microorganism score (0-8 scale) ([4]; 2-PE 1317 ppm alone): 7
- viable microorganism score (0-8 scale) ([4]; 2-PE 1975 ppm alone): 7
- viable microorganism score (0-8 scale) ([4]; 2-PE 2963 ppm alone): 5
- viable microorganism score (0-8 scale) ([4]; 2-PE 4444 ppm alone): 6
- viable microorganism score (0-8 scale) ([4]; 2-PE 6667 ppm alone): 6
- viable microorganism score (0-8 scale) ([4]; 2-PE 10000 ppm alone): 0
- Min alone, 2-PE (ppm) [4, 7]: 10000 ppm

SMILES: N#CCCC(Br)(C#N)CBr (stereo not shown) [DBGN, 2-Bromo-2-(bromomethyl)glutaronitrile]
- viable microorganism score (0-8 scale) ([5]; DBGN 3 ppm alone): 8
- viable microorganism score (0-8 scale) ([5]; DBGN 4 ppm alone): 8
- viable microorganism score (0-8 scale) ([5]; DBGN 7 ppm alone): 8
- viable microorganism score (0-8 scale) ([5]; DBGN 10 ppm alone): 8
- viable microorganism score (0-8 scale) ([5]; DBGN 15 ppm alone): 8
- viable microorganism score (0-8 scale) ([5]; DBGN 22 ppm alone): 7
- viable microorganism score (0-8 scale) ([5]; DBGN 33 ppm alone): 3
- viable microorganism score (0-8 scale) ([5]; DBGN 50 ppm alone): 0
- Min alone, DBGN (ppm) [5, 7]: 50 ppm

SMILES: CC(=O)OC1CC(C)OC(C)O1 (stereo not shown) [DMX, 2,6-Dimethyl-m-dioxan-4-ol acetate]
- viable microorganism score (0-8 scale) ([5]; DMX 76 ppm alone): 8
- viable microorganism score (0-8 scale) ([5]; DMX 115 ppm alone): 8
- viable microorganism score (0-8 scale) ([5]; DMX 172 ppm alone): 8
- viable microorganism score (0-8 scale) ([5]; DMX 258 ppm alone): 7
- viable microorganism score (0-8 scale) ([5]; DMX 387 ppm alone): 3
- viable microorganism score (0-8 scale) ([5]; DMX 580 ppm alone): 2
- viable microorganism score (0-8 scale) ([5]; DMX 870 ppm alone): 2
- viable microorganism score (0-8 scale) ([5]; DMX 1305 ppm alone): 0
- Min alone, DMX (ppm) [5, 7]: 580 ppm
- DMX alone (ppm) ([1]; 4 log10 kill of bacteria): 1160 ppm
- viable microorganism score (0-8 scale) ([1]; DMX 153 ppm alone): 5.0
- viable microorganism score (0-8 scale) ([1]; DMX 229 ppm alone): 5.0
- viable microorganism score (0-8 scale) ([1]; DMX 344 ppm alone): 5.0
- viable microorganism score (0-8 scale) ([1]; DMX 516 ppm alone): 6.0
- viable microorganism score (0-8 scale) ([1]; DMX 773 ppm alone): 4.0
- viable microorganism score (0-8 scale) ([1]; DMX 1160 ppm alone): 0.0
- viable microorganism score (0-8 scale) ([1]; DMX 1740 ppm alone): 0.0
- viable microorganism score (0-8 scale) ([1]; DMX 2610 ppm alone): 0.0
- log10 viable microorganisms recovered ([2]; DMX 102 ppm alone): 8
- log10 viable microorganisms recovered ([2]; DMX 153 ppm alone): 8
- log10 viable microorganisms recovered ([2]; DMX 229 ppm alone): 8
- log10 viable microorganisms recovered ([2]; DMX 344 ppm alone): 8
- log10 viable microorganisms recovered ([2]; DMX 516 ppm alone): 8
- log10 viable microorganisms recovered ([2]; DMX 773 ppm alone): 8
- log10 viable microorganisms recovered ([2]; DMX 1160 ppm alone): 8
- log10 viable microorganisms recovered ([2]; DMX 1740 ppm alone): 0
- DMX alone (ppm) [2, 6]: 1740 ppm
- viable microorganism score (0-8 scale) ([4]; DMX 153 ppm alone): 7
- viable microorganism score (0-8 scale) ([4]; DMX 229 ppm alone): 6
- viable microorganism score (0-8 scale) ([4]; DMX 344 ppm alone): 6
- viable microorganism score (0-8 scale) ([4]; DMX 516 ppm alone): 6
- viable microorganism score (0-8 scale) ([4]; DMX 773 ppm alone): 0
- viable microorganism score (0-8 scale) ([4]; DMX 1160 ppm alone): 0
- viable microorganism score (0-8 scale) ([4]; DMX 1740 ppm alone): 0
- viable microorganism score (0-8 scale) ([4]; DMX 2610 ppm alone): 0
- Min alone, Dimethoxane (ppm) [4, 7]: 773 ppm

From US8828414B2, “Biocidal composition of 2,6-dimethyl-m-dioxane-4-ol acetate and methods of use” (priority 2009, dated 2014)
